Measurements reported in the NIST ThermoML archive (doi:10.1021/acs.jced.8b00037).

Test: molar heat capacity at saturation pressure
Conditions: Liquid, Vacuum adiabatic calorimetry

COC [dimethyl ether]
Conditions	molar heat capacity [J/K/mol]
133.47 K	99.41
136.11 K	98.99
138.75 K	99.09
141.37 K	98.75
143.97 K	98.64
146.56 K	98.99
149.14 K	99.23
151.7 K	98.99
154.26 K	98.77
156.8 K	98.65
159.33 K	98.43
161.84 K	98.67
164.35 K	98.6
166.84 K	98.46
169.32 K	98.32
171.79 K	98.39
174.26 K	98.44
176.71 K	98.47
179.15 K	98.73
181.58 K	98.78
184 K	98.54
186.41 K	98.8
188.82 K	98.98
191.21 K	98.9
193.6 K	99.11
195.98 K	98.99
198.36 K	99.02
200.73 K	99.09
203.08 K	99.08
205.44 K	99.32
207.79 K	99.89
210.13 K	100.15
212.46 K	99.96
214.79 K	100.15
217.12 K	100.26
219.43 K	100.09
221.74 K	100.12
224.04 K	100.21
226.34 K	100.65
228.64 K	101.1
230.92 K	101.1
233.21 K	101.41
235.49 K	101.75
237.76 K	101.68
240.03 K	101.94
242.31 K	102.15
244.57 K	102.6
246.84 K	102.48
249.11 K	103.29
251.38 K	102.81
253.64 K	103
255.9 K	103.44
258.16 K	103.81
260.42 K	104.08
262.68 K	104.75
264.94 K	105.51
267.2 K	105.91
269.47 K	106.42
271.72 K	106.14
273.98 K	106.27
276.24 K	107.11
278.5 K	108
280.77 K	108.08
283.02 K	108.35
285.29 K	108.89
287.55 K	109.42
289.82 K	109.46
292.08 K	110
294.36 K	110.71
296.63 K	110.49
298.9 K	111.38
301.19 K	111.57
303.45 K	112.35
305.74 K	112.73
308.02 K	113.5
310.3 K	114.89
312.58 K	115.6
314.87 K	116.12
317.16 K	116.12
319.44 K	117.62
323.96 K	119.09
326.26 K	120.03
328.57 K	120.51
330.88 K	121.43
333.2 K	121.96
335.54 K	122.78
337.89 K	122.8
340.24 K	124.08
342.62 K	124.9
345 K	125.19
